Assay [1] has as its system grb2-stimulated dynamin. Further details: method as in PMID 16740485. The settings on record: no detergent, read-out: previously estimated IC50 for dynasore; cited from earlier work.
The target in assay [2] is microtubule-stimulated dynamin I (Ovis aries, UniProt A0ACI6PDC7). Description: Microtubule-stimulated (helical) dynamin I GTPase assay. The settings on record: presence of Tween-80. It is filed as biochemical, sheep. How it is done:
The Malachite Green colorimetric GTPase assay was as described 10. Dynamin I activity was measured in its SAI activity state or was stimulated by three different methods. As each stimulus activates dynamin to different extents, each assay required different dynamin concentrations. First, maximal dynamin activity was stimulated by sonicated PS liposomes 10. Purified dynamin I (10–20 nM, diluted in: 6 mM Tris–HCl, 20 mM NaCl and 0.01% Tween 80, pH 7.4) was incubated in 96‐well plates in GTPase buffer (5 mM Tris–HCl, 10 mM NaCl, 2 mM Mg^2+, 0.05% Tween 80, pH 7.4, 1 µg/mL leupeptin and 0.1 mM PMSF) and GTP 0.3 mM in the presence of test compound for 30 min at 37°C in a final assay volume of 150 μL. Reactions were terminated with 10 μL of 0.5 M ethylenediaminetetraacetic acid (EDTA) pH 7.4 and Malachite Green solution (40 μL: 2% w/v ammonium molybdate tetrahydrate, 0.15% w/v malachite green and 4 M HCl) was added for 5 min. Second, dynamin (20 nM) was stimulated by 10 µg/mL of taxol‐stabilized preformed bovine brain microtubules (Cytoskeleton, Inc) using the same protocol. […] Finally, dynamin (500 nM) SAI activity was measured using high concentrations of dynamin, which promote its cooperative self‐assembly into rings (but not helices) 26. […] After the Vmax and Km values were determined, the data were transformed using the Lineweaver–Burke equation, 1/v = 1/Vmax + (Km/Vmax)(1/[S]).

The subject of assay [3] is synaptosomes. Briefly: Glutamate release from synaptosomes (4-AP stimulated). It is filed as cell-based, rat. Particulars: 20 μM, 30 min pretreatment, 3 mM 4-AP. How it is done:
Release of glutamate from synaptosomes was performed as described previously 60, with minor changes. The assay was carried out at 37°C in a Perkin Elmer LS50 fluorimeter. Control (1% DMSO) and 4a‐treated samples were incubated in the presence of the compound for 30 min prior to stimulation of glutamate release. For each sample, 1 mg of crude P2 synaptosomes was diluted in 2 mL of HEPES‐buffered Krebs‐like buffer, either containing 1 mM EGTA (zero Ca^2+) or 1 mM EGTA plus 3 mM […] (2 mM free Ca^2+). NAPD^+ (3 mM) and glutamic acid dehydrogenase (50 U) were added and allowed to incubate for 15 min to allow residual glutamate in the sample to be metabolized. 4‐AP (3 mM) was subsequently added to stimulate glutamate release, which was recorded over a 5‐min period. Readings of fluorescence were taken every 2 seconds. All treatment conditions were carried out in zero Ca^2+ and 2 mM Ca^2+ conditions with the zero Ca^2+ measurement subtracted from the 2 mM measurement for each time point. […] Each treatment was carried out in duplicate within a single experiment and each independent experiment was carried out three times on separate days using synaptosomes prepared from fresh rat brain tissue ([…]).

Assay [4] deals with T1, DynI (rec), full-length human dynamin I (Homo sapiens, UniProt Q05193).
T1 sequence (Q05193 1-864): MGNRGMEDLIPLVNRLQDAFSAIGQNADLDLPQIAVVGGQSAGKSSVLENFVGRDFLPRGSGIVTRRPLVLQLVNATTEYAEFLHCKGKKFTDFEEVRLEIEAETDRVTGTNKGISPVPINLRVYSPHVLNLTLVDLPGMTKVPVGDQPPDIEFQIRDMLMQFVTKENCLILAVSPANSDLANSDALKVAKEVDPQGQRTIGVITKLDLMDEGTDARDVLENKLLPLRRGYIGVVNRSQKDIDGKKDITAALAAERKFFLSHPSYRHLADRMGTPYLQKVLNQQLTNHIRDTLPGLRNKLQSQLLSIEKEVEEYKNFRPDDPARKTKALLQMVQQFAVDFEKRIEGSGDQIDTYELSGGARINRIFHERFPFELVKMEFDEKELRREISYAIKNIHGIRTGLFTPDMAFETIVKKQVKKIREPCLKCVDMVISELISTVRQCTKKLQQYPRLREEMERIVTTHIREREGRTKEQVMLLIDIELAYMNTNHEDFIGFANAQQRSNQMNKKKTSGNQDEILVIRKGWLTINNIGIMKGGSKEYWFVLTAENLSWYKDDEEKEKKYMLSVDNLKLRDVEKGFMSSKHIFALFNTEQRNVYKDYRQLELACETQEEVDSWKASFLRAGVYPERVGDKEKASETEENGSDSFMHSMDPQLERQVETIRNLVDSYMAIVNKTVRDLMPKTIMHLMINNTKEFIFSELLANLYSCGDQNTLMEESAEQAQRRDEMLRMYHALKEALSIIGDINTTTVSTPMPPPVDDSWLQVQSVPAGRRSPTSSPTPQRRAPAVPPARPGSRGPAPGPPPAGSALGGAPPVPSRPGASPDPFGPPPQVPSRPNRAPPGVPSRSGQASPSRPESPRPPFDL
Description: PS-stimulated GTPase assay with recombinant dynamin I from Sf21 cells. It is filed as biochemical. The settings on record: for IC50: DynI 20 nM, no unit in table; for DynI selectivity ratio: DynI (rec) versus DynII (rec). The source says:
Recombinant dynamin I was used only for the data in Table 2. The dynamin antibodies were from: Dynamin I—in‐house YF2 antibodies, raised in rabbits against two different synthetic peptides: dynamin I 629‐647 ([…]) and dynamin I 765–778 ([…]), used at 1/2000 dilution, as previously described 53; Dynamin II—Santa Cruz (C‐18, sc‐6400, used at 1/1000) and Dynamin III—Santa Cruz (P‐13, sc‐69472, used at 1/500 dilution).
The Malachite Green colorimetric GTPase assay was as described 10. Dynamin I activity was measured in its SAI activity state or was stimulated by three different methods. As each stimulus activates dynamin to different extents, each assay required different dynamin concentrations. First, maximal dynamin activity was stimulated by sonicated PS liposomes 10. Purified dynamin I (10–20 nM, diluted in: 6 mM Tris–HCl, 20 mM NaCl and 0.01% Tween 80, pH 7.4) was incubated in 96‐well plates in GTPase buffer (5 mM Tris–HCl, 10 mM NaCl, 2 mM Mg^2+, 0.05% Tween 80, pH 7.4, 1 µg/mL leupeptin and 0.1 mM PMSF) and GTP 0.3 mM in the presence of test compound for 30 min at 37°C in a final assay volume of 150 μL. Reactions were terminated with 10 μL of 0.5 M ethylenediaminetetraacetic acid (EDTA) pH 7.4 and Malachite Green solution (40 μL: 2% w/v ammonium molybdate tetrahydrate, 0.15% w/v malachite green and 4 M HCl) was added for 5 min. Second, dynamin (20 nM) was stimulated by 10 µg/mL of taxol‐stabilized preformed bovine brain microtubules (Cytoskeleton, Inc) using the same protocol. Third, dynamin I (50 nM) was stimulated by 1 μM of recombinant growth factor receptor‐bound protein 2 (grb2), a SH3 (Src homology)‐containing protein that stimulates dynamin about 5–10 times less efficiently than liposomes or microtubules 54. The assay conditions were as described above. Finally, dynamin (500 nM) SAI activity was measured using high concentrations of dynamin, which promote its cooperative self‐assembly into rings (but not helices) 26. The final DMSO concentration in the GTPase or endocytosis assays was at most 3.3 or 1%, respectively, but typically was at 1%. The GTPase assay for dynamin I was unaffected by DMSO up to 3.3%. Compounds were dissolved as 30 mM stocks in 100% DMSO. These stock solutions can be stored at −20°C for several months. Compounds were subsequently diluted into solutions of 50% DMSO made up in 20 mM Tris–HCl pH 7.4 and diluted again into the final assay. For analysis of the kinetics of 4a inhibition, dynamin I at a final concentration of 17 nM was incubated with GTPase buffer containing PS (2 µg/mL) and varying amounts of GTP (50–250 μM) in the presence of 4a at a concentration range between 0.5 and 6 μM. […] After the Vmax and Km values were determined, the data were transformed using the Lineweaver–Burke equation, 1/v = 1/Vmax + (Km/Vmax)(1/[S]).

As a reminder, the IC50 is the concentration needed to halve the response being measured.

Sequence of microtubule-stimulated dynamin I (A0ACI6PDC7 entry or part of it): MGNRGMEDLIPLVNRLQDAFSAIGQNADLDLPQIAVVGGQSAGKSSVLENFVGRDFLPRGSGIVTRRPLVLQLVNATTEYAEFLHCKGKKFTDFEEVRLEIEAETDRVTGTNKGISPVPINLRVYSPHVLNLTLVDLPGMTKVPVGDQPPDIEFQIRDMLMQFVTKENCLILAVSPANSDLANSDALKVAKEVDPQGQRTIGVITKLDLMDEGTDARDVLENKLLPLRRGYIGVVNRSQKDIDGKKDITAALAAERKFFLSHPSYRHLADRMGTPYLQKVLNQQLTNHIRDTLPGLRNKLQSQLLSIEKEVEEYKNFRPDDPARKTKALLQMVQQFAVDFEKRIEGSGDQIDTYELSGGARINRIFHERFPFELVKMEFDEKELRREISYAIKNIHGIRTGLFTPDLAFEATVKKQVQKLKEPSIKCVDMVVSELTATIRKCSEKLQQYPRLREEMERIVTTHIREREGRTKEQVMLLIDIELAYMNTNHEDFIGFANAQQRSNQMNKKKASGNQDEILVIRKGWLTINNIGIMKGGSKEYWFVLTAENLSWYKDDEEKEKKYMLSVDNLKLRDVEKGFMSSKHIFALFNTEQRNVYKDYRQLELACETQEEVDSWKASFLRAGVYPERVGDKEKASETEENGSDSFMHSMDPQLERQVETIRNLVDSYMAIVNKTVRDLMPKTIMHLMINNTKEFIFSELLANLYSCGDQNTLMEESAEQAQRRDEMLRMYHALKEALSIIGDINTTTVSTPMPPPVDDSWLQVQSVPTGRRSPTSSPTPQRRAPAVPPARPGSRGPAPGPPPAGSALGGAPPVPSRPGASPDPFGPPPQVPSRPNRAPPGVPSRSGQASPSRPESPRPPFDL

Take `O=C(N/N=C/c1ccc(O)c(O)c1)c1cc2ccccc2cc1O` [Dynasore, (E)-N'-(3,4-Dihydroxybenzylidene)-3-hydroxy-2-naphthohydrazide]: the IC50 in assay [1] is ~15 µM. Moreover, the “block of microtubule-stimulated dynamin activity” value in assay [2] is recorded as “did not block”.
For `O=C(N/N=C/c1cc(O)c(O)cc1O)c1cc2ccccc2cc1O` [4a, (E)-3-Hydroxy-N'-(2,4,5-trihydroxybenzylidene) -2-naphthohydrazide], the “Ca2+-dependent glutamate release” value in assay [3] is given as “decrease in the release of glutamate only after 45 seconds”. In addition, in assay [4] (Absence of Tween), the IC50 came out at 1.1 ± 0.2 µM and the DynI selectivity ratio was 2.1. Also, in assay [4] (Presence of Tween), the IC50 worked out at 30 ± 8.2 µM and the DynI selectivity ratio amounted to 3.1.
